{"source": "patent US6153589A", "about": "“2,3-epoxy alcohols, acids and derivatives as anti retroviral chemotherapeutic agents” (The United States of America as represented by the …, priority 1992, dated 2000)", "key": {"[1]": {"test_system": "HIV-2 protease", "test": "HIV protease cleavage of nonapeptide (HPLC)", "assay_type": "biochemical", "settings": "0.5 μl of 10 μg/μl inhibitor in DMSO per 10 μl reaction; pH 6.5, room temperature; pentapeptide product relative to DMSO control; sampled at ca. 16 and 40 hr (time not given)", "summary_of_the_method": "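Nonapeptide substrate Val-Ser-Gln-Asn-Tyr-Pro-Ile-Val-Gln-NH2 incubated with protease (ca. 100 ng) in 200 mM sodium phosphate, 1 M NaCl, 5% glycerol, 0.25% NP-40, pH 6.5, at room temperature with inhibitor added from a 10 μg/μl DMSO stock. Samples taken at ca. 16 and 40 h; RP-HPLC (206 nm) measured pentapeptide product relative to DMSO control.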"}, "[2]": {"molecular_target": "T1, porcine Renin (Sus scrofa, UniProt A0A287APG1)", "T1 construct": "purchased Sigma", "T1 sequence (A0A287APG1 24-407)": "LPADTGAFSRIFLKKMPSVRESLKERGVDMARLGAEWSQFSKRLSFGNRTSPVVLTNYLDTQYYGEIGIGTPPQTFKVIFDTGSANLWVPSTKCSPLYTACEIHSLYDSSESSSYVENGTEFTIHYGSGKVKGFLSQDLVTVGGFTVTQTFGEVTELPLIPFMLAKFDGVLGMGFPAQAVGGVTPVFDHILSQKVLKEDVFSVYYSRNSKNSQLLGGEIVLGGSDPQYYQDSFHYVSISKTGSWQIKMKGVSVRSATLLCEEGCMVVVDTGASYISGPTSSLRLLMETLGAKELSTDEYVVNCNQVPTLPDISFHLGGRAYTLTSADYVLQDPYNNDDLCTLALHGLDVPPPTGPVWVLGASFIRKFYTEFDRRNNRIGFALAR", "test": "Porcine Renin cleavage of porcine tetradecapeptide (HPLC)", "assay_type": "biochemical", "settings": "0.5 μl of 50 μg/μl inhibitor in DMSO in 50 μl; pH 6.00, room temperature, 70 min; relative to uninhibited control", "from_the_text": "Renin Activity: Porcine Renin Cleavage of Porcine Tetradecapeptide\nProteolytic enzymes are ubiquitous in many living systems. Renin is an asparxyl protease found in mammals which is responsible for the regulation of blood pressure. Structural and functional similarities between Renin and retroviral proteases have been previously noted (Pearl, L. H., Taylor, W. R., (1987) Nature, 329, 351-354). Consequently, successful therapeutic inhibition of retroviral proteases depends on the ability of the inhibitor to inhibit the retroviral enzyme while having a greatly diminished effect on normally occurring enzymes like Renin. The failure to inhibit the desired enzyme selectively may have an adverse effect on normal biochemical functions. The similarity of Renin to retroviral proteases and its viral normal bodily function makes it an attractive system in which to examine inhibitory selectivity.\nRenin activity was determined by a method similar to that described above for the HIV protease. A solution containing 0.37 m unit (0.5 μl of stock solution containing 0.75 m unit/μl) of porcine Renin (Sigma) was added to 5 μg of porcine angiotensinogen in 50 μl of 0.1 M citrate-phosphate buffer (pH 6.00) containing 0.25% NP-40. A DMSO solution containing the inhibitor (0.5 μl of a 50 μg/μl solution) was added and the reaction was allowed to incubate at room temperature for 70 min. The entire mixture was analyzed by HPLC chromatographic analysis was perforemd on a 4.6×250 mm Lichrosorb RP-18 column eluting with a gradient of 0-50% acetonitrile in 0.02 M KH2 Po4 (pH 4.7) over 30 min monitoring absorbance at 206 nm. Appearance of both the tetrapeptide and the decapeptide products may be monitored under these conditions. Enzyme activity is expressed as the amount of tetrapeptide produced relative to an uninhibited control, and are summarized in Table 3 below."}, "[3]": {"test_system": "Rous Sarcoma Virus", "settings": "in vitro; literature report; cited from earlier work"}, "[4]": {"test_system": "Murine Leukemia Virus", "settings": "in vitro; literature report; cited from earlier work"}, "[5]": {"test_system": "HIV infected cells", "settings": "literature report; cited from earlier work"}, "[6]": {"test_system": "fatty acid synthesis", "settings": "literature report; cited from earlier work"}, "[7]": {"settings": "literature report; cited from earlier work"}, "[8]": {"test_system": "HIV1 IIIb", "test": "microbe, parasite or virus in culture", "assay_type": "cell-based", "settings": "Human immunodeficiency virus 1, IIIB; for viability at 35.2 µg/mL: 35.2 ug/ml; for viability at 20.7 µg/mL: 20.7 ug/ml; for viability at 3.52 µg/mL: 3.52 ug/ml; for viability at 10 µg/mL: 10 ug/ml; for viability at 23 µg/mL: 23 ug/ml; for viability at 11.5 µg/mL: 11.5 ug/ml; for viability at 31.9 µg/mL: 31.9 ug/ml; for viability at 3.9 µg/mL: 3.9 ug/ml", "summary_of_the_method": "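Human host cells infected with HIV1 IIIb (virus-producing H9 cells or cell-free virus) and incubated seven days with compound. Viable cells measured by XTT formazan absorbance; response expressed as % of uninfected controls against virus kill %. Some cultures redosed after 3 days.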"}}, "note": "Like-named read-outs stand apart in the source and are kept apart here.", "data": [{"smiles": "C/C=C/C/C=C/CCC(=O)[C@H]1O[C@H]1C(N)=O", "note": "[Cerulenin, 4-Oxo-2R,3S-epoxy-trans,trans-2,5-dodecadienyl amide]", "values": [{"measurement": "Percent Control Cleavage of Nonapeptide HIV-1 Cleavage Site Fragment", "setting": "[1]", "result": 10, "unit": "%"}, {"measurement": "Percent control (tetrapeptide produced)", "setting": "[2]", "result": 68, "unit": "%"}, {"measurement": "antiretroviral activity against Rous Sarcoma Virus", "setting": "[3]", "result": "exhibit antiretroviral activity"}, {"measurement": "antiretroviral activity against Murine Leukemia Virus", "setting": "[4]", "result": "exhibit antiretroviral activity"}, {"measurement": "inhibition of viral polyprotein processing", "setting": "[5]", "result": "inhibit viral polyprotein processing"}, {"measurement": "inhibition of fatty acid synthesis", "setting": "[6]", "result": "potent inhibitor of fatty acid synthesis"}, {"measurement": "toxicity", "setting": "[7]", "result": "relatively high toxicity"}]}, {"smiles": "CCCCCCCCC[C@@H]1O[C@@H]1C(N)=O", "note": "[Example 24, (2S-cis)-3-Nonyloxiranecarboxy Amide]", "values": [{"measurement": "viability at 35.2 µg/mL", "setting": "[8]; 168 h, read-out: Antiviral Effect (viable cells as % of uninfected controls), run 5, source V (cell free virus), virus kill 54.6%", "result": 73, "unit": "%"}, {"measurement": "viability at 20.7 µg/mL", "setting": "[8]; 168 h, read-out: Antiviral Effect (viable cells as % of uninfected controls), run 6, source V (cell free virus), virus kill 54.6%", "result": 71.4, "unit": "%"}, {"measurement": "viability at 3.52 µg/mL", "setting": "[8]; 168 h, read-out: Antiviral Effect (viable cells as % of uninfected controls), run 7, source V (cell free virus), virus kill 26.0%", "result": 28.1, "unit": "%"}, {"measurement": "viability at 20.7 µg/mL", "setting": "[8]; 168 h, read-out: Antiviral Effect (viable cells as % of uninfected controls), run 8, source V (cell free virus), virus kill 26.0%", "result": 34, "unit": "%"}, {"measurement": "viability at 1.34 µg/mL", "setting": "[8]; 168 h, read-out: Antiviral Effect (viable cells as % of uninfected controls), run 9, 1.34 ug/ml, source V (cell free virus), virus kill 20.0%", "result": 41.7, "unit": "%"}, {"measurement": "viability at 0.135 µg/mL", "setting": "[8]; 168 h, read-out: Antiviral Effect (viable cells as % of uninfected controls), run 10*, 0.135 ug/ml, source V (cell free virus), virus kill 23.0%, culture redosed with compound after 3 days", "result": 114, "unit": "%"}, {"measurement": "viability at 35.2 µg/mL", "setting": "[8]; H9, 168 h, read-out: Antiviral Effect (viable cells as % of uninfected controls), run 1, source C (virus producing H9 cells), virus kill 16.0%", "result": 73, "unit": "%"}, {"measurement": "viability at 20.7 µg/mL", "setting": "[8]; H9, 168 h, read-out: Antiviral Effect (viable cells as % of uninfected controls), run 2, source C (virus producing H9 cells), virus kill 16.0%", "result": 67.4, "unit": "%"}, {"measurement": "viability at 3.52 µg/mL", "setting": "[8]; H9, 168 h, read-out: Antiviral Effect (viable cells as % of uninfected controls), run 3, source C (virus producing H9 cells), virus kill 9.0%", "result": 11.3, "unit": "%"}, {"measurement": "viability at 2.07 µg/mL", "setting": "[8]; H9, 168 h, read-out: Antiviral Effect (viable cells as % of uninfected controls), run 4, 2.07 ug/ml, source C (virus producing H9 cells), virus kill 9.0%", "result": 10.5, "unit": "%"}, {"measurement": "Percent Control Cleavage of Nonapeptide HIV-1 Cleavage Site Fragment", "setting": "[1]", "result": 113, "unit": "%"}, {"measurement": "Percent control (tetrapeptide produced)", "setting": "[2]", "result": 106, "unit": "%"}]}, {"smiles": "CCCCCCCCC[C@H]1O[C@H]1CO", "note": "[Example 11, (2S-cis)-3-Nonyloxirane Methanol]", "values": [{"measurement": "viability at 10 µg/mL", "setting": "[8]; 168 h, read-out: Antiviral Effect (viable cells as % of uninfected controls), run 8, source V (cell free virus), virus kill 25.0%", "result": 110, "unit": "%"}, {"measurement": "viability at 23 µg/mL", "setting": "[8]; 168 h, read-out: Antiviral Effect (viable cells as % of uninfected controls), run 9, source V (cell free virus), virus kill 23.0%", "result": 30, "unit": "%"}, {"measurement": "viability at 11.5 µg/mL", "setting": "[8]; 168 h, read-out: Antiviral Effect (viable cells as % of uninfected controls), run 10, source V (cell free virus), virus kill 49.0%", "result": 68.5, "unit": "%"}, {"measurement": "viability at 31.9 µg/mL", "setting": "[8]; 168 h, read-out: Antiviral Effect (viable cells as % of uninfected controls), run 11, source V (cell free virus), virus kill 53.0%", "result": 65.1, "unit": "%"}, {"measurement": "viability at 11.5 µg/mL", "setting": "[8]; 168 h, read-out: Antiviral Effect (viable cells as % of uninfected controls), run 12, source V (cell free virus), virus kill 30.0%", "result": 80.4, "unit": "%"}, {"measurement": "viability at 31.9 µg/mL", "setting": "[8]; 168 h, read-out: Antiviral Effect (viable cells as % of uninfected controls), run 13, source V (cell free virus), virus kill 22.0%", "result": 82.6, "unit": "%"}, {"measurement": "viability at 3.9 µg/mL", "setting": "[8]; 168 h, read-out: Antiviral Effect (viable cells as % of uninfected controls), run 14, source V (cell free virus), virus kill 20.0%", "result": 21.5, "unit": "%"}, {"measurement": "viability at 3.9 µg/mL", "setting": "[8]; 168 h, read-out: Antiviral Effect (viable cells as % of uninfected controls), run 15*, source V (cell free virus), virus kill 25.0%, culture redosed with compound after 3 days", "result": 32.4, "unit": "%"}, {"measurement": "viability at 10 µg/mL", "setting": "[8]; H9, 168 h, read-out: Antiviral Effect (viable cells as % of uninfected controls), run 1, source C (virus producing H9 cells), virus kill 6.0%", "result": 60.2, "unit": "%"}, {"measurement": "viability at 1 µg/mL", "setting": "[8]; H9, 168 h, read-out: Antiviral Effect (viable cells as % of uninfected controls), run 2, 1 ug/ml, source C (virus producing H9 cells), virus kill 25.0%", "result": 37.5, "unit": "%"}, {"measurement": "viability at 23 µg/mL", "setting": "[8]; H9, 168 h, read-out: Antiviral Effect (viable cells as % of uninfected controls), run 3, source C (virus producing H9 cells), virus kill 14.0%", "result": 19.9, "unit": "%"}, {"measurement": "viability at 11.5 µg/mL", "setting": "[8]; H9, 168 h, read-out: Antiviral Effect (viable cells as % of uninfected controls), run 4, source C (virus producing H9 cells), virus kill 12.5%", "result": 18.1, "unit": "%"}, {"measurement": "viability at 31.9 µg/mL", "setting": "[8]; H9, 168 h, read-out: Antiviral Effect (viable cells as % of uninfected controls), run 5, source C (virus producing H9 cells), virus kill 13.0%", "result": 23.9, "unit": "%"}, {"measurement": "viability at 11.5 µg/mL", "setting": "[8]; H9, 168 h, read-out: Antiviral Effect (viable cells as % of uninfected controls), run 6, source C (virus producing H9 cells), virus kill 9.0%", "result": 12.3, "unit": "%"}, {"measurement": "viability at 31.9 µg/mL", "setting": "[8]; H9, 168 h, read-out: Antiviral Effect (viable cells as % of uninfected controls), run 7, source C (virus producing H9 cells), virus kill 11.0%", "result": 13, "unit": "%"}, {"measurement": "Percent Control Cleavage of Nonapeptide HIV-1 Cleavage Site Fragment", "setting": "[1]", "result": 85, "unit": "%"}, {"measurement": "Percent control (tetrapeptide produced)", "setting": "[2]", "result": 106, "unit": "%"}]}]}
